Assays:
[1] = biological target: T1, mannose-binding protein (MBP) (Rattus norvegicus, UniProt P19999); test: Binding of AMM to mannose-binding protein (previously determined binding constant, used for the bound fraction); conditions: 1 mM MBP-A, 1 mM AMM; calculated from dissociation constant and concentrations
T1 construct: made in house; host or cells: E. coli JA221
Description: Interpretation of residual dipolar contributions of a ligand in a protein-bound state will, in general, require separation of the contribution from the free state using known binding properties. The observed residual dipolar couplings measured in the AMM/MBP complex (Table 2, Dobs) will be a population weighted average from the free (Nfree) and bound (Nbound) states, such that: Dobs=NfreeDfree+NboundDbound (1) The fraction of AMM free and bound (Nfree and Nbound) can be calculated from the dissociation constant and known protein-ligand concentrations. Using a previously determined binding constant (approx. 1 mM) approximately 40% of AMM is in fact bound to MBP leaving approximately 60% of AMM free in solution. Order Tensor Calculation in AMM

[2] = biological target: T1, mannose-binding protein (MBP); conditions: AMM/MBP, previously determined; read-out: binding constant; cited from earlier work
[3] = biological target: T2, GnT-V (Homo sapiens, UniProt Q09328); conditions: cited from earlier work; for Kd: GnT-V, known binding constant
T2 construct: The soluble form of recombinant human GnT-V was expressed in CHO cells; made in house; host or cells: CHO cells
T2 sequence (Q09328 31-741 limits assumed): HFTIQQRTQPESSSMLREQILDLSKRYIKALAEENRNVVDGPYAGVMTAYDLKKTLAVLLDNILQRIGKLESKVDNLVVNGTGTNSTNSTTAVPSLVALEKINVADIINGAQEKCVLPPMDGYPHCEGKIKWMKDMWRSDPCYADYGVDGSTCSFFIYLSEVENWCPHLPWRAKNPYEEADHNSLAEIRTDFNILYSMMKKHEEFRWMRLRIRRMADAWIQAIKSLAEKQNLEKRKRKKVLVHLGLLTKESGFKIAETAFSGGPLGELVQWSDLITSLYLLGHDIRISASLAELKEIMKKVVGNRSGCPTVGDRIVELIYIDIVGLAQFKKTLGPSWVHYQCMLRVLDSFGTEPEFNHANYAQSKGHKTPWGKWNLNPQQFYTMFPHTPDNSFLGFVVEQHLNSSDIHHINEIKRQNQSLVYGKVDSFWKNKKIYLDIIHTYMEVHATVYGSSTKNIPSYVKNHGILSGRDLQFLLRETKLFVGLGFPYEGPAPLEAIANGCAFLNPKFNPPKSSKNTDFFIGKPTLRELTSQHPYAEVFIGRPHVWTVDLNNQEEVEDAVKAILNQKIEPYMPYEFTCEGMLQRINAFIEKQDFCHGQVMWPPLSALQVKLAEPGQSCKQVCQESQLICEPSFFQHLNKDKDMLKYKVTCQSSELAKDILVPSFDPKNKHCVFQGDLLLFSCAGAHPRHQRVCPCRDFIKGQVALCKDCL

SMILES	fraction of AMM bound to MBP [1]	Kd [2] [µM]	Kd [3] [µM]	type of inhibition of GnT-V [3]
COC1O[C@H](CO)[C@@H](O)[C@H](O)[C@@H]1O (stereo partly drawn) [AMM, α-methyl mannoside]	approximately 40%	~1000		
O=c1ccn([C@@H]2O[C@H](COP(=O)(O)OP(=O)(O)O)[C@@H](O)[C@H]2O)c(=O)[nH]1 [UDP, uridine diphosphate]			1100	competitive inhibitor
CC(=O)N[C@H]1[C@@H](OP(=O)(O)OP(=O)(O)OC[C@H]2O[C@@H](n3ccc(=O)[nH]c3=O)[C@H](O)[C@@H]2O)O[C@H](CO)[C@@H](O)[C@@H]1O [UDP-GlcNAc]			1100	
